Results as given in EP3925956B1, “1H-INDAZOLE-3-CARBOXAMIDE DERIVATIVES AND RELATED COMPOUNDS AS FACTOR D INHIBITORS FOR TREATING DISEASES CHARACTERIZED BY ABERRANT COMPLEMENT SYSTEM ACTIVITY, SUCH AS E.G. IMMUNOLOGICAL DISORDERS” (BioCryst Pharmaceuticals, Inc., priority 2016, dated 2017).

Target: Factor D (Homo sapiens, UniProt P00746)
Experiment: Factor D esterolytic assay

Chain of Factor D (P00746 26-253): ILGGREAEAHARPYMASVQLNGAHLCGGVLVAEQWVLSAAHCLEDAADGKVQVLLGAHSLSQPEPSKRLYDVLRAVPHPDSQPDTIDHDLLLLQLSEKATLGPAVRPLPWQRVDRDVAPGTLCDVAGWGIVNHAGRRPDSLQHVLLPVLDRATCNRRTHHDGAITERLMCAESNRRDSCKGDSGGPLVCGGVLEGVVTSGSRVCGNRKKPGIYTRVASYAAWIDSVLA

Row | SMILES | IC50
1 | NC(=O)c1nn(CC(=O)N(CC(=O)NCc2cccc(Cl)c2F)[C@H]2C[C@H](N)C2)c2ccc(N)cc12 [351b, 5-amino-1-(2-(((trans)-3-aminocyclobutyl)(2-((3-chloro-2-fluorobenzyl)amino)-2-oxoethyl)amino)-2-oxoethyl)-1H-indazole-3-carboxamide] | < 1 µM
2 | CN(C)CC[C@H](N)c1cccc(Cl)c1F [358f, (S)-1-(3-chloro-2-fluorophenyl)-N3,N3-dimethylpropane-1,3-diamine] | 1 to 10 µM
